Results: patent US20140343001A1, “INDOLE DERIVATIVES INHIBITORS OF ENZYME LACTATE DEHYDROGENASE (LDH)” (Universitá di Pisa, priority 2011, published 2014)

Target: T1, hLDH5 (LDH-A) (Homo sapiens, UniProt P00338)
T1 construct: purchased LEEBIO (USA)
Assay: Enzyme inhibition of human lactate dehydrogenase isoform 5
Type: biochemical
Details: ranges of values, pH 7.4; for Ki: 37° C., read-out: inhibitory activity against hLDH5 (Ki); for IC50: room temperature, read-out: inhibitory activity against hLDH5 (IC50)
Method: The compounds described in the examples were evaluated in enzymatic assays to assess its inhibitory properties against two human isoforms of lactate dehydrogenase, hLDH5 containing solely the subunit LDH-A (LEEBIO—USA), and the hLDH1 containing only the LDH subunits-B (Sigma Aldrich, USA), in order to verify the selectivity of these compounds.
(for Ki measurements). Such assays were conducted in cells containing 200 μL of a solution comprising the reagents dissolved in phosphate buffer (KH2PO4 and K2HPO4) at pH 7.4.
IC50 values were calculated as described below. […] Seven different concentrations (in duplicate for each concentration) of compound were used to generate a concentration-response curve. […] Compound solutions were dispensed in 96-well plates (8 μL), then substrate and cofactor dissolved in buffer (152 μl) and enzyme solution (40 μl) were finally added. Dilution of the enzyme stock solution was made to allow a 10% consumption of the cofactor after 15 min. The eventual background fluorescence of the tested compounds or quenching of the NADH fluorescence by the tested compounds was subtracted. In addition to the compound test wells, each plate contained maximum and minimum controls. Assay plates were incubated at room temperature for 15 min and the final measurements were performed using Victor X3 Microplates reader (PerkinElmer®) at a fluorescence emission wavelength of 460 nm (excitation at 340 nm). IC50 were generated using the curve-fitting tool of GraphPad Prism].
The resulting data of enzymatic kinetic (the constants of Michaelis-Menten) were determined by analysis of non-linear regression.

Structure (SMILES)	Ki [µM]	IC50 [µM]
COC(=O)c1cc2c(F)cc(-c3ccccc3)cc2n1O [Example 51, methyl 4-fluoro-1-hydroxy-6-phenyl-1H-indole-2-carboxylate]	10 to 100	–
O=C(O)c1cc2c(F)cc(-c3ccccc3)cc2n1O [Example 52, 4-fluoro-1-hydroxy-6-phenyl-1H-indole-2-carboxylic acid]	5 to 25	–
O=C(O)c1cc2c(F)cc(-c3ccc(Cl)cc3Cl)cc2n1O [Example 54, 6-(2,4-dichlorophenyl)-4-fluoro-1-hydroxy-1H-indole-2-carboxylic acid]	5 to 25	–
O=C(OCc1ccccc1)c1cc2c(C(F)(F)F)cc(-c3ccc(Cl)cc3Cl)cc2n1O [Example 55, benzyl 6-(2,4-dichlorophenyl)-1-hydroxy-4-(trifluoromethyl)-1H-indole-2-carboxylate]	–	0.01 to 1
O=C(OCc1ccc(-c2ccccc2)cc1)c1cc2c(C(F)(F)F)cc(-c3ccc(Cl)cc3Cl)cc2n1O [Example 56, [1,1′-biphenyl]-4-ylmethyl 6-(2,4-dichlorophenyl)-1-hydroxy-4-(trifluoromethyl)-1H-indole-2-carboxylate]	–	0.01 to 1
CN1CCC(OC(=O)c2cc3c(C(F)(F)F)cc(-c4ccccc4)cc3n2O)CC1 [Example 57, 1-methylpiperidin-4-yl 1-hydroxy-6-phenyl-4-(trifluoromethyl)-1H-indole-2-carboxylate]	–	> 100
CN1CCC(OC(=O)c2cc3c(C(F)(F)F)cc(-c4ccc(Cl)cc4Cl)cc3n2O)CC1 [Example 58, 1-methylpiperidin-4-yl 6-(2,4-dichlorophenyl)-1-hydroxy-4-(trifluoromethyl)-1H-indole-2-carboxylate]	–	> 100
O=C(OC1CCN(Cc2ccccc2)CC1)c1cc2c(C(F)(F)F)cc(-c3ccc(Cl)cc3Cl)cc2n1O [Example 59, 1-benzylpiperidin-4-yl 6-(2,4-dichlorophenyl)-1-hydroxy-4-(trifluoromethyl)-1H-indole-2-carboxylate]	–	> 100
COc1ccc(COC(=O)c2cc3c(C(F)(F)F)cc(-c4ccc(Cl)cc4Cl)cc3n2O)cc1 [Example 60, 4-methoxybenzyl 6-(2,4-dichlorophenyl)-1-hydroxy-4-(trifluoromethyl)-1H-indole-2-carboxylate]	–	0.01 to 1
O=C(OCc1ccc([N+](=O)[O-])cc1)c1cc2c(C(F)(F)F)cc(-c3ccc(Cl)cc3Cl)cc2n1O [Example 61, 4-nitrobenzyl 6-(2,4-dichlorophenyl)-1-hydroxy-4-(trifluoromethyl)-1H-indole-2-carboxylate]	–	0.01 to 1
O=C(OCc1ccc(F)cc1)c1cc2c(C(F)(F)F)cc(-c3ccc(Cl)cc3Cl)cc2n1O [Example 62, 4-fluorobenzyl 6-(2,4-dichlorophenyl)-1-hydroxy-4-(trifluoromethyl)-1H-indole-2-carboxylate]	–	0.01 to 1
O=C(OCc1ccc(Cl)cc1)c1cc2c(C(F)(F)F)cc(-c3ccc(Cl)cc3Cl)cc2n1O [Example 63, 4-chlorobenzyl 6-(2,4-dichlorophenyl)-1-hydroxy-4-(trifluoromethyl)-1H-indole-2-carboxylate]	–	0.01 to 1
O=C(OCc1ccc(C(F)(F)F)cc1)c1cc2c(C(F)(F)F)cc(-c3ccc(Cl)cc3Cl)cc2n1O [Example 64, 4-(trifluoromethyl)benzyl 6-(2,4-dichlorophenyl)-1-hydroxy-4-(trifluoromethyl)-1H-indole-2-carboxylate]	–	0.01 to 1
